Laboratory results from patent US20170121315A1, “HETEROBICYCLICALLY SUBSTITUTED 4-OXOBUTANE ACID DERIVATIVES AND USE THEREOF” (priority 2014, published 2017).
pIC50: −log10 of the molar value.

Columns and labels:
Format in all cases: biochemical
MMP-10 = biological target: T1, MMP-10 (Homo sapiens, UniProt P09238); assay: In vitro MMP-10 inhibition test; conditions: human MMP-10
T1 construct: purchased R&D Systems 910-MP
Source text: (§1) The MMP-mediated amidolytic cleavage of a suitable peptide substrate leads to an increase in fluorescent light here too. The signal intensity of the fluorescent light is directly proportional to the enzyme activity. The active concentration of a test compound at which half the enzyme is inhibited (50% signal intensity of the fluorescent light) is reported as the IC50 value.
(§2) Recombinant MMP-10 (R&D Systems, 910-MP) is chemically activated in accordance with the manufacturer's instructions using APMA. 1 μl of the test compound to be analysed (as a solution in DMSO, suitable concentrations e.g. 1 nM to 30 μM) is pipetted into 24 μl of activated enzyme (final concentration e.g. 2 nM) in reaction buffer (50 mM Tris/HCl pH 7.5, 10 mM CaCl2, 150 mM NaCl, 0.05% Brij®-35) in a white 384-hole microtiter plate (MTP). The enzymatic reaction is started by adding the intramolecularly quenched Mca-Arg-Pro-Lys-Pro-Val-Glu-Nval-Trp-Arg-Lys(Dnp)-NH2 substrate (final concentration e.g. 10 μM; R&D Systems, ES-002), so as to result in a total test volume of 50 μl. The course of the MMP-10 reaction is measured by measuring the fluorescence intensity (excitation 320 nm, emission 410 nm) over a suitable period of time (e.g. over 120 min at a temperature of 32° C.).

MMP-16 = biological target: T2, MMP-16 (Homo sapiens, UniProt P51512); assay: In vitro MMP-16 inhibition test; conditions: human MMP-16
T2 construct: purchased R&D Systems 1785-MP
T2 sequence (P51512 120-564 limits assumed): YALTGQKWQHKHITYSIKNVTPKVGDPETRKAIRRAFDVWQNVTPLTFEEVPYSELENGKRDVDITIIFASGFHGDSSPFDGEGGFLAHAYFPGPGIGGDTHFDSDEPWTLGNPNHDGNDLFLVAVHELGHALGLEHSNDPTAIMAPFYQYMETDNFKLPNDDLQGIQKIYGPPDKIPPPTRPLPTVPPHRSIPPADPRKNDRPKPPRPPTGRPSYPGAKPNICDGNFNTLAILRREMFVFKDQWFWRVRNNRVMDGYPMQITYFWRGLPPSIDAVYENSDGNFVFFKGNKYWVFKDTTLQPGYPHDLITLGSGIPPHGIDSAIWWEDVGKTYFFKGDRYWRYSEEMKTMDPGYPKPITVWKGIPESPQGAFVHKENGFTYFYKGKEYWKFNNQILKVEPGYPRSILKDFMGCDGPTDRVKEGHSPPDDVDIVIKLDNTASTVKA
Source text: as §1
Recombinant MMP-16 (R&D Systems, 1785-MP) is enzymatically activated in accordance with the manufacturer's instructions using recombinant furin (R&D Systems, 1503-SE). 1 μl of the test compound to be analysed (as a solution in DMSO, suitable concentrations e.g. 1 nM to 30 μM) is pipetted into 24 μl of activated enzyme (final concentration e.g. 1 nM) in reaction buffer (50 mM Tris/HCl pH 7.5, 10 mM CaCl2, 150 mM NaCl, 0.05% Brij®-35) in a white 384-hole microtiter plate (MTP). The enzymatic reaction is started by adding the intramolecularly quenched Mca-Lys-Pro-Leu-Gly-Leu-Dpa(Dnp)-Ala-Arg-NH2 substrate (final concentration e.g. 5 μM; R&D Systems, ES-010), so as to result in a total test volume of 50 μl. The course of the MMP-16 reaction is measured by measuring the fluorescence intensity (excitation 320 nm, emission 410 nm) over a suitable period of time (e.g. over 120 min at a temperature of 32° C.).

[1] = biological target: T3, human macrophage elastase (HME/hMMP-12) (Homo sapiens, UniProt P39900); assay: In vitro HME inhibition test (standard or high-sensitivity); conditions: in some cases mean values, rounded to two significant figures
T3 construct: purchased R&D Systems 917-MP
T3 sequence (P39900 106-470): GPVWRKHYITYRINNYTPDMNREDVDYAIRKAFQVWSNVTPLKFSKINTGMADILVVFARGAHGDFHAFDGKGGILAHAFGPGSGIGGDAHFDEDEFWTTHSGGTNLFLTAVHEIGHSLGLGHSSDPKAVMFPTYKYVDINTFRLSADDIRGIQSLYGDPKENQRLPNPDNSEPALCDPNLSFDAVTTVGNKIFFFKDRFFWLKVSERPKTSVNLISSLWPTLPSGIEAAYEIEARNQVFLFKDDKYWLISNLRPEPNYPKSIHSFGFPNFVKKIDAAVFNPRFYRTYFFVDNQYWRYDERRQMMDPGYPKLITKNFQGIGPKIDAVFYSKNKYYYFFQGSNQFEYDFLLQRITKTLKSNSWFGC
Method in brief: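 Autoactivated HME (0.5 nM; high-sensitivity format 0.05 nM, ~16 h) with 5 μM quenched Mca-PLGLEEA-Dap(Dnp)-NH2 substrate in HEPES pH 7.4, NaCl, CaCl2, ZnCl2, EDTA, Brij buffer, 2 h at 37° C. Fluorescence at ex 323/em 393 nm; IC50 from signal versus concentration.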

MMP-8 = biological target: T4, MMP-8 (Homo sapiens, UniProt P22894); assay: In vitro MMP-8 inhibition test; conditions: human MMP-8
T4 construct: purchased R&D Systems 908-MP
T4 sequence (P22894 101-467): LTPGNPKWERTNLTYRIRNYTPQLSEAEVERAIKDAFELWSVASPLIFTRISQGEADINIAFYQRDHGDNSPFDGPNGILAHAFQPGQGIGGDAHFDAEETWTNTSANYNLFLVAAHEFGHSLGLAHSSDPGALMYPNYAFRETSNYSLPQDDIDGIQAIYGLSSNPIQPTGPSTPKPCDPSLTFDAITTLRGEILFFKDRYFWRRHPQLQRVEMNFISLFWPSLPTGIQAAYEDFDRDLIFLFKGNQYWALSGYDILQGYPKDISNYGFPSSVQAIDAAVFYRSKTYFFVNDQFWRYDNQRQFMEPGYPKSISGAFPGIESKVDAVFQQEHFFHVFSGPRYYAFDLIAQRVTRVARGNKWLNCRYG
Source text: as §1
as §2, with “Recombinant MMP-8” for “Recombinant MMP-10”, “Systems, 908-MP)” for “Systems, 910-MP)”, “e.g. 0.5” for “e.g. 2”, “quenched Mca-Pro-Leu-Gly-Leu-Dpa(Dnp)-Ala-Arg-NH2” for “quenched Mca-Arg-Pro-Lys-Pro-Val-Glu-Nval-Trp-Arg-Lys(Dnp)-NH2”, “Systems, ES-001),” for “Systems, ES-002),”, “the MMP-8” for “the MMP-10”

MMP-3 = biological target: T5, MMP-3 (Homo sapiens, UniProt P08254); assay: In vitro MMP-3 inhibition test; conditions: human MMP-3
T5 construct: purchased R&D Systems 513-MP
T5 sequence (P08254 100-477): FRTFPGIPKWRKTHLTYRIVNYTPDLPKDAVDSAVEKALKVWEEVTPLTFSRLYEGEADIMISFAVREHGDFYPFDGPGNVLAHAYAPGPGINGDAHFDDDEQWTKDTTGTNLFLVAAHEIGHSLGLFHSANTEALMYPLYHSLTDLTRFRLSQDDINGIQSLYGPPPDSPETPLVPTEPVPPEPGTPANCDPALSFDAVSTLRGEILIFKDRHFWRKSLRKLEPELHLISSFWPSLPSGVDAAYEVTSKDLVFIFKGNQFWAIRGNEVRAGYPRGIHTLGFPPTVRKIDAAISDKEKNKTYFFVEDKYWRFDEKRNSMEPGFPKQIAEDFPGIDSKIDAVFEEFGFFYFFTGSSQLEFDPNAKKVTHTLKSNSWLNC
Source text: as §1
as §2, with “MMP-3” for “MMP-10”, “513-MP)” for “910-MP)”

T1 sequence (P09238 99-476): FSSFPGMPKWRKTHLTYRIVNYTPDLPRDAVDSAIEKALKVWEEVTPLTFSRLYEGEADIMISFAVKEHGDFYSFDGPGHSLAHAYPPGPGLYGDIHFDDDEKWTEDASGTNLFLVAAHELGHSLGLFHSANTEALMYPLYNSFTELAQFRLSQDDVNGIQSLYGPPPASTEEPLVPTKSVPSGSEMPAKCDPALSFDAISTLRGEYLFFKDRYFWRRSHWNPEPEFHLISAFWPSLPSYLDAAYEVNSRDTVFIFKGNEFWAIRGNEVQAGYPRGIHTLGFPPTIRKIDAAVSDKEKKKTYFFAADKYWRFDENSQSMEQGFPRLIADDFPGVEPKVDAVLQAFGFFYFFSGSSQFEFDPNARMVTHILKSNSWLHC

Row | SMILES | pIC50 (MMP-10) | pIC50 (MMP-16) | pIC50 [1] | pIC50 (MMP-8) | pIC50 (MMP-3)
1 | O=C(CC(CCn1nnc2ccccc2c1=O)C(=O)O)c1cc2cc(OCCC3CCOCC3)ccc2o1 (racemic) [Example 6, (+/−)-4-Oxo-2-[2-(4-oxo-1,2,3-benzotriazin-3(4H)-yl)ethyl]-4-{5-[2-(tetrahydro-2H-pyran-4-yl)ethoxy]-1-benzofur-2-yl}butanoic acid] | 5.15 | < 4.40 | 8.40 | 5.41 | 4.59
2 | O=C(CC(CCn1nnc2ccccc2c1=O)C(=O)O)c1coc2cc(OCCC3CCOCC3)ccc12 (racemic) [Example 74, (+/−)-4-Oxo-2-[2-(4-oxo-1,2,3-benzotriazin-3(4H)-yl)ethyl]-4-{6-[2-(tetrahydro-2H-pyran-4-yl)ethoxy]-1-benzofur-3-yl}butanoic acid] | 5.68 | 5.19 | 9.74 | 6.43 | 4.80
3 | O=C(CC(CCn1nnc2ccccc2c1=O)C(=O)O)c1cc2cc(OCc3ccc(C(F)(F)F)cc3)ccc2o1 (racemic) [Example 44, (+/−)-4-Oxo-2-[2-(4-oxo-1,2,3-benzotriazin-3(4H)-yl)ethyl]-4-(5-{[4-(trifluoromethyl)benzyl]oxy}-1-benzofur-2-yl)butanoic acid] | 4.54 | < 4.40 | 9.21 | 4.55 | 4.64
4 | CCCOc1ccc2cc(C(=O)CC(CCn3nnc4ccccc4c3=O)C(=O)O)oc2c1 (racemic) [Example 58, (+/−)-4-Oxo-2-[2-(4-oxo-1,2,3-benzotriazin-3(4H)-yl)ethyl]-4-(6-propoxy-1-benzofur-2-yl)butanoic acid] | < 4.40 | < 4.40 | 8.30 | 5.00 | < 4.40
5 | O=C(CC(CCn1nnc2ccccc2c1=O)C(=O)O)c1cc2ccc(OCC3CC3)cc2s1 (racemic) [Example 111, (+/−)-4-[6-(Cyclopropylmethoxy)-1-benzothiophen-2-yl]-4-oxo-2-[2-(4-oxo-1,2,3-benzotriazin-3(4H)-yl)ethyl]butanoic acid] | 5.33 | < 4.40 | 8.48 | 6.34 | 5.01
6 | CCCCCCCOc1ccc2cc(C(=O)CC(CCn3nnc4ccccc4c3=O)C(=O)O)oc2c1 (single isomer, unassigned; (+)) [Example 69, (+)-4-[6-(Heptyloxy)-1-benzofur-2-yl]-4-oxo-2-[2-(4-oxo-1,2,3-benzotriazin-3(4H)-yl)ethyl]butanoic acid acid] | 4.55 | < 4.40 | 9.00 | < 4.40 | 4.44
7 | O=C(CC(CCn1nnc2ccccc2c1=O)C(=O)O)c1noc2cc(OCC3CCCCC3)ccc12 (racemic) [Example 153, (+/−)-4-[6-(Cyclohexylmethoxy)-1,2-benzoxazol-3-yl]-4-oxo-2-[2-(4-oxo-1,2,3-benzotriazin-3(4H)-yl)ethyl]butanoic acid] | 4.85 | < 4.40 | 8.89 | 5.77 | 4.92
8 | Cc1cccc(COc2ccc3oc(C(=O)CC(CCn4nnc5ccccc5c4=O)C(=O)O)cc3c2)c1 (racemic) [Example 51, (+/−)-4-{5-[(3-Methylbenzyl)oxy]-1-benzofur-2-yl}-4-oxo-2-[2-(4-oxo-1,2,3-benzotriazin-3(4H)-yl)ethyl]butanoic acid] | 4.44 | < 4.40 | 8.39 | 4.47 | < 4.40
9 | O=C(CC(CCn1nnc2ccccc2c1=O)C(=O)O)c1cc2ccc(OCCc3ccccc3)cc2o1 (racemic) [Example 73, (+/−)-4-Oxo-2-[2-(4-oxo-1,2,3-benzotriazin-3(4H)-yl)ethyl]-4-[6-(2-phenylethoxy)-1-benzofur-2-yl]butanoic acid] | < 4.40 | < 4.40 | 8.55 | < 4.40 | 4.54
10 | NC(=O)c1cccc(COc2ccc3oc(C(=O)CC(CCn4nnc5ccccc5c4=O)C(=O)O)cc3c2)c1 (single isomer, unassigned; (+)) [Example 34, (+)-4-{5-[(3-Carbamoylbenzyl)oxy]-1-benzofur-2-yl}-4-oxo-2-[2-(4-oxo-1,2,3-benzotriazin-3(4H)-yl)ethyl]butanoic acid] | 4.85 | < 4.40 | 8.96 | 5.31 | 4.47
11 | O=C(CC(CCn1nnc2ccccc2c1=O)C(=O)O)c1cc2cc(OCc3ccccc3)ccc2o1 (single isomer, unassigned; (+)) [Example 30, (+)-4-[5-(Benzyloxy)-1-benzofur-2-yl]-4-oxo-2-[2-(4-oxo-1,2,3-benzotriazin-3(4H)-yl)ethyl]butanoic acid] | 4.52 | < 4.40 | 9.00 | 4.49 | < 4.40
12 | O=C(CC(CCn1nnc2ccccc2c1=O)C(=O)O)c1noc2cc(OCc3ccc(F)cc3)ccc12 (racemic) [Example 136, (+/−)-4-{6-[(4-Fluorobenzyl)oxy]-1,2-benzoxazol-3-yl}-4-oxo-2-[2-(4-oxo-1,2,3-benzotriazin-3(4H)-yl)ethyl]butanoic acid] | 4.92 | 4.52 | 9.20 | 5.92 | 4.82
13 | O=C(CC(CCn1nnc2ccccc2c1=O)C(=O)O)c1cc2cc(OCc3cccc(Cl)c3)ccc2o1 (racemic) [Example 50, (+/−)-4-{5-[(3-Chlorobenzyl)oxy]-1-benzofur-2-yl}-4-oxo-2-[2-(4-oxo-1,2,3-benzotriazin-3(4H)-yl)ethyl]butanoic acid] | 4.70 | < 4.40 | 8.80 | 4.44 | 4.47
14 | O=C(CC(CCn1nnc2ccccc2c1=O)C(=O)O)c1coc2cc(OCC3CCCCC3)ccc12 (single isomer, unassigned; (+)) [Example 82, (+)-4-[6-(Cyclohexylmethoxy)-1-benzofur-3-yl]-4-oxo-2-[2-(4-oxo-1,2,3-benzotriazin-3(4H)-yl)ethyl]butanoic acid] | 5.17 | < 4.40 | 10.05 | 6.24 | 4.80
